ChEMBL document CHEMBL1201862, “PubChem BioAssay data set” (2004)
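In this assay, cells in 96-well plates receive the compound at five concentrations for 48 hours. Endpoints are linearly interpolated between the surrounding concentrations. At the GI50, growth is halved.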 The source made the active and inactive calls. Cut-off read from the data, not from the text of the source: active = GI50 up to about 1.1 µM and inactive = higher.

Key:
Experiment in all cases: inhibition of tumour cell growth, NCI panel, 48 h
[1] = test system: UACC-62
[2] = test system: DMS-114
[3] = test system: KM12
[4] = test system: SNB-19
[5] = test system: Malme-3M
[6] = test system: 786-0
[7] = test system: SN12C
[8] = test system: SF-295
[9] = test system: NCI-H522
[10] = test system: SF-539
[11] = test system: HT-29
[12] = test system: EKVX
[13] = test system: U-251
[14] = test system: NCI-H23
[15] = test system: OVCAR-5
[16] = test system: SK-MEL-2
[17] = test system: UACC-257
[18] = test system: ACHN

Structure (SMILES)	GI50 [1]	GI50 [2]	GI50 [3]	GI50 [4]	GI50 [5]	GI50 [6]	GI50 [7]	GI50 [8]	GI50 [9]	GI50 [10]	GI50 [11]	GI50 [12]	GI50 [13]	GI50 [14]	GI50 [15]	GI50 [16]	GI50 [17]	GI50 [18]
CC(=O)c1ccc2c(ccc(=O)n2C)c1	93.8 µM (inactive)	> 100 µM (inactive)	> 100 µM (inactive)	> 100 µM (inactive)	> 100 µM (inactive)	> 100 µM (inactive)	> 100 µM (inactive)	> 100 µM (inactive)	56.2 µM (inactive)	> 100 µM (inactive)	> 100 µM (inactive)	> 100 µM (inactive)	> 100 µM (inactive)	> 100 µM (inactive)	> 100 µM (inactive)	> 100 µM (inactive)		
NC1=NN(c2ccccc2)C(=O)C1/C(=N\NC(=O)c1cc2ccccc2cc1O)C(=O)Nc1cccc(C(F)(F)F)c1 (stereo unspecified)	35.2 µM (inactive)	24.8 µM (inactive)	37.3 µM (inactive)	75 µM (inactive)	37 µM (inactive)	38.1 µM (inactive)	46.6 µM (inactive)	49.1 µM (inactive)			41 µM (inactive)	35.6 µM (inactive)	37.7 µM (inactive)	29.2 µM (inactive)	26.2 µM (inactive)	22.4 µM (inactive)	26.4 µM (inactive)	30.1 µM (inactive)
CC(C)C(=O)/C=C/c1ccc(Cl)cc1	15.4 µM (inactive)	16.9 µM (inactive)	11.5 µM (inactive)	13.4 µM (inactive)		11.1 µM (inactive)	7.73 µM (inactive)	13.5 µM (inactive)	11 µM (inactive)	10.4 µM (inactive)	14.1 µM (inactive)		12.9 µM (inactive)	17 µM (inactive)	20.2 µM (inactive)	19.4 µM (inactive)	20.2 µM (inactive)	11.2 µM (inactive)
CC1(O)CCC2(C)C(=O)C1(C)CCC21OCCO1 (stereo unspecified)		> 100 µM (inactive)	> 100 µM (inactive)	> 100 µM (inactive)	> 100 µM (inactive)	> 100 µM (inactive)	> 100 µM (inactive)	> 100 µM (inactive)	> 100 µM (inactive)	> 100 µM (inactive)	> 100 µM (inactive)	> 100 µM (inactive)	> 100 µM (inactive)	> 100 µM (inactive)	> 100 µM (inactive)	> 100 µM (inactive)	> 100 µM (inactive)	> 100 µM (inactive)
O=[N+]([O-])c1ccc(C[P+]2(c3ccccc3)CCCCC2)cc1.[O-][Cl+3]([O-])([O-])[O-]	> 100 µM (inactive)	> 100 µM (inactive)	> 100 µM (inactive)	> 100 µM (inactive)	> 100 µM (inactive)	> 100 µM (inactive)	> 100 µM (inactive)	> 100 µM (inactive)	> 100 µM (inactive)	> 100 µM (inactive)	> 100 µM (inactive)	> 100 µM (inactive)	> 100 µM (inactive)	> 100 µM (inactive)	> 100 µM (inactive)	> 100 µM (inactive)	> 100 µM (inactive)	> 100 µM (inactive)
CCOP1(=O)C=CC(Cl)=C(C)C1 (stereo unspecified)	15 µM (inactive)	15.6 µM (inactive)	18.3 µM (inactive)	67.5 µM (inactive)	14.3 µM (inactive)	15.6 µM (inactive)	11.7 µM (inactive)	35.2 µM (inactive)	4.04 µM (inactive)	17.8 µM (inactive)	13.2 µM (inactive)	26.4 µM (inactive)	24.4 µM (inactive)	13 µM (inactive)	24.2 µM (inactive)	12.9 µM (inactive)	15.5 µM (inactive)	8.63 µM (inactive)
COc1cc(C2c3cc4c(cc3[C@@H](N(C)c3ccc(N(C)C)cc3)C3COC(=O)C23)OCO4)cc(OC)c1O (stereo partly specified)	0.472 µM (active)	0.264 µM (active)	0.377 µM (active)	2.15 µM (inactive)		0.489 µM (active)	0.59 µM (active)	0.147 µM (active)	0.0589 µM (active)	0.255 µM (active)	0.269 µM (active)	15.8 µM (inactive)	0.219 µM (active)	0.291 µM (active)	3.42 µM (inactive)	0.33 µM (active)	1.39 µM (inactive)	0.774 µM (active)
COc1ccc(CNc2cc(OC)cc(OC)c2)cc1	52 µM (inactive)	39.4 µM (inactive)	48.6 µM (inactive)	> 100 µM (inactive)	> 56.6 µM (inactive)	> 37.6 µM (inactive)			23.1 µM (inactive)			60.8 µM (inactive)	> 88.5 µM (inactive)	40.6 µM (inactive)		> 74 µM (inactive)	64 µM (inactive)	> 69.3 µM (inactive)
